Laboratory results as given in patent US4569926A, “Stimulation of phagocytosis with somatostatin” (Brigham and Women's Hospital, priority 1983, dated 1986).

Tests used:
Kupffer cells and RES [1] = test: colloidal carbon clearance from the blood (phagocytic index K); type: in vivo, rat; conditions: for clearing potency order by change in K caused by 100 μg of treatment (ΔK/100 μg): crude comparison, rank order
Experimental: (§1) All of the experiments were performed in female Spraque-Dawley rats (ESS Laboratories, Lynnfield, Mass.) with an initial body weight of 150-180 g, and with unlimited access to Purina laboratory chow and tap water. Control and experimental groups consisted of 3-4 rats. Each experiment was repeated at least twice and the results were pooled. Linear or cyclic somatostatin (Serono) was injected under mild ether anesthesia at 10, 50, 100 or 250 μg in 0.5 ml of saline into the jugular vein once daily for 4 consecutive days in the dose-response study (FIG. 1). Control animals were injected with the same amount of saline. In the time-response study, 0, 1, 2, 3 or 4 daily doses of somatostatin, 50 μg, were injected i.v. (FIG. 2). In the comparative experiments, somatostatin, 250 μg, i.v., was given as in the first study, and standard doses of zymosan (Sigma 2,500 μg/100 g i.v.; twice, 48 and 24 hr before colloidal carbon) and the reticuloendothelial system (RES) blocker gadolinium chloride (Sigma; 500 μg/100 g i.v.; once, 24 hour prior to india ink) were administered to additional groups of rats (FIG. 3). In all of the experiments, 0.1 ml/100 g of the supernatant of centrifuged (3000 rpm/15 min) colloidal carbon (Wagner's india ink) was injected i.v. under mild ether anesthesia. Blood samples (50 μl ) were obtained with heparinized glass capillaries and by puncture of the retro-orbital venous plexus at 3, 6, 12 and 24 minutes after the administration of carbon. The blood samples were lysed in 2 ml of 0.1% Na2 CO3 solution. After 24 minutes, the rats were killed, and the livers were perfused through the portal vein with 20 ml saline to remove trapped blood. Samples of liver, spleen, lung and kidney were fixed in 10% formalin and subsequently processed for light microscopy. A piece of liver was digested in concentrated mineral acid, and, following organic extraction, the concentration of carbon, as in blood hemolysates, was measured spectrophotometrically at 660 nm using the method of Takahashi and Matsuoka (J. Toxicol. Sci., S., 1 (1980).
The phagocytic index or K value was calculated as described by others (Takahashi and Matsuoka, ibid; Biozzi et al, J. Exp. Pathol., 34, 441 (1953)) to indicate the carbon clearance for the blood. Since it was evident that the effect of treatment was maximal on carbon clearance during the first 6 or 12 minutes, K values were obtained only for this time interval. For statistical evaluation, Student's two-tailed t-test was used.

Kupffer cells and RES [2] = test: hepatic uptake of colloidal carbon; type: in vivo, rat; conditions: zymosan 2,500 μg/100 g i.v. twice, 48 and 24 hr before carbon; GdCl3 500 μg/100 g i.v. once, 24 hour before (FIG. 3)
Experimental: as §1, with “In all of the experiments, 0.1 ml/100 g of the supernatant of centrifuged (3000 rpm/15 min) colloidal carbon (Wagner's india ink) was injected i.v. under mild ether anesthesia. Blood samples (50 μl ) were obtained with heparinized glass capillaries and by puncture of the retro-orbital venous plexus at 3, 6, 12 and 24 minutes after the administration of carbon. The blood samples were lysed in 2 ml of 0.1% Na2 CO3 solution. After 24 minutes, the rats were killed, and the livers were perfused through the portal vein with 20 ml saline to remove trapped blood. Samples of liver, spleen, lung and kidney were fixed in 10% formalin and subsequently processed for light microscopy.” left out

Kupffer cells = test: light microscopic examination of liver sections for carbon particles; type: in vivo, rat; conditions: periportal areas, 24 minutes after carbon
Experimental: as §1, with “In all of the experiments, 0.1 ml/100 g of the supernatant of centrifuged (3000 rpm/15 min) colloidal carbon (Wagner's india ink) was injected i.v. under mild ether anesthesia. Blood samples (50 μl ) were obtained with heparinized glass capillaries and by puncture of the retro-orbital venous plexus at 3, 6, 12 and 24 minutes after the administration of carbon. The blood samples were lysed in 2 ml of 0.1% Na2 CO3 solution. After 24 minutes, the rats were killed, and the livers were perfused through the portal vein with 20 ml saline to remove trapped blood. Samples of liver, spleen, lung and kidney were fixed in 10% formalin and subsequently processed for light microscopy.” left out

[3] = pretreatment with exogenous somatostatin; cited from earlier work
[4] = in vivo; cited from earlier work
[5] = in vivo; cited from earlier work; remark: listed apart in the source

| Compound | clearing potency order by change in K caused by 100 μg of treatment (ΔK/100 μg) (Kupffer cells and RES [1]) | carbon clearance from the blood, comparative experiment (Kupffer cells and RES [1]; zymosan 2,500 μg/100 g i.v. twice, 48 and 24 hr before carbon, GdCl3 500 μg/100 g i.v. once, 24 hour before (FIG. 3)) | uptake of the carbon to the liver, comparative experiment (Kupffer cells and RES [2]) | colloidal carbon clearance from the blood, dose-response (Kupffer cells and RES [1]; 10 μg i.v. once daily for 4 days (FIG. 1)) | colloidal carbon clearance from the blood, dose-response (Kupffer cells and RES [1]; doses of 50, 100 or 250 μg i.v. once daily for 4 days (FIG. 1)) | colloidal carbon clearance from the blood (Kupffer cells and RES [1]; female Sprague-Dawley rats, somatostatin i.v. once daily for 4 days vs saline, effect most dramatic during first 6-12 minutes (FIG. 1)) | phagocytic index or K value (Kupffer cells and RES [1]; time-response study, 50 μg i.v., three or four doses (one per day) (FIG. 2)) | carbon deposition in liver macrophages (light microscopy) (Kupffer cells) | cysteamine-induced duodenal ulcer [3] | gastric acid output [3] | effect on experimentally induced pancreatitis [4] | effect on adrenal and lung lesions [5] |
| --- | --- | --- | --- | --- | --- | --- | --- | --- | --- | --- | --- | --- |
| [Cl][Gd]([Cl])[Cl] [GdCl3, gadolinium chloride] | somatostatin >zymosan >GdCl3 | inhibited | inhibited |  |  |  |  |  |  |  |  |  |
| somatostatin | somatostatin >zymosan >GdCl3 |  |  | less effective than the other doses | very similar results | markedly accelerated | significantly enhanced | caused numerous macrophages to take up carbons | prevents | minimal inhibition | beneficial effect | beneficial effect |
